Laboratory results reported in patent US20230133958A1, “COMPOUNDS USEFUL IN MODULATING EGFR AND PI3K” (Mekanistic Therapeutics LLC, priority 2021, published 2023).

Tests used:
Assay type in all cases: cell-based
CCRF-CEM = test: NCI COMPARE panel (SRB growth inhibition), CCRF-CEM; conditions: Homo sapiens, Leukemia, 48 h
Protocol: (§1) The human tumor cell lines of the cancer screening panel are grown in RPMI 1640 medium containing 5% fetal bovine serum and 2 mM L-glutamine. For a typical screening experiment, cells are inoculated into 96 well microtiter plates in 100 µL at plating densities ranging from 5,000 to 40,000 cells/well depending on the doubling time of individual cell lines. After cell inoculation, the microtiter plates are incubated at 37° C., 5% CO2, 95% air and 100% relative humidity for 24 h prior to addition of experimental drugs.
(§2) After 24 h, two plates of each cell line are fixed in situ with TCA, to represent a measurement of the cell population for each cell line at the time of drug addition (Tz). Experimental drugs are solubilized in dimethyl sulfoxide at 400-fold the desired final maximum test concentration and stored frozen prior to use. […]
(§3) Following drug addition, the plates are incubated for an additional 48 h at 37° C., 5 % CO2, 95% air, and 100% relative humidity. […] Bound stain is subsequently solubilized with 10 mM trizma base, and the absorbance is read on an automated plate reader at a wavelength of 515 nm. […] Using the seven absorbance measurements [time zero, (Tz), control growth, (C), and test growth in the presence of drug at the five concentration levels (Ti)], the percentage growth is calculated at each of the drug concentrations levels. Percentage growth inhibition is calculated as: […]

ACHN = test: NCI COMPARE panel (SRB growth inhibition), ACHN; conditions: Homo sapiens, Renal Cancer, 48 h
Protocol: as §1, §2, §3

SF-268 = test: NCI COMPARE panel (SRB growth inhibition), SF-268; conditions: Homo sapiens; CNS Cancer, SF-268, 48 h
Protocol: as §1, §2, §3

UACC-62 = test: NCI COMPARE panel (SRB growth inhibition), UACC-62; conditions: Homo sapiens; Melanoma, UACC-62, 48 h
Protocol: as §1, §2, §3

NCI-H522 = test: NCI COMPARE panel (SRB growth inhibition), NCI-H522; conditions: Homo sapiens; Non-Small Cell Lung Cancer, NCI-H522, 48 h
Protocol: as §1, §2, §3

MDA-MB-468 = test: NCI COMPARE panel (SRB growth inhibition), MDA-MB-468; conditions: Homo sapiens; Breast Cancer, MDA-MB-468, 48 h
Protocol: as §1, §2, §3

RXF 393 = test: NCI COMPARE panel (SRB growth inhibition), RXF 393; conditions: Homo sapiens; Renal Cancer, RXF 393, 48 h
Protocol: as §1, §2, §3

SK-OV3 = test: NCI COMPARE panel (SRB growth inhibition), SK-OV3; conditions: Homo sapiens, SK-OV-3; Ovarian Cancer, SK-OV3, 48 h
Protocol: as §1, §2, §3

MOLT-4 = test: NCI COMPARE panel (SRB growth inhibition), MOLT-4; conditions: Homo sapiens; Leukemia, MOLT-4, 48 h
Protocol: as §1, §2, §3

HCC-2998 = test: NCI COMPARE panel (SRB growth inhibition), HCC-2998; conditions: Homo sapiens; Colon Cancer, HCC-2998, 48 h
Protocol: as §1, §2, §3

COLO 205 = test: NCI COMPARE panel (SRB growth inhibition), COLO 205; conditions: Homo sapiens; Colon Cancer, COLO 205, 48 h
Protocol: as §1, §2, §3

UO-31 = test: NCI COMPARE panel (SRB growth inhibition), UO-31; conditions: Homo sapiens; Renal Cancer, UO-31, 48 h
Protocol: as §1, §2, §3

SF-539 = test: NCI COMPARE panel (SRB growth inhibition), SF-539; conditions: Homo sapiens; CNS Cancer, SF-539, 48 h
Protocol: as §1, §2, §3

IGROV1 = test: NCI COMPARE panel (SRB growth inhibition), IGROV1; conditions: Homo sapiens, IGROV-1; Ovarian Cancer, IGROV1, 48 h
Protocol: as §1, §2, §3

SK-MEL-28 = test: NCI COMPARE panel (SRB growth inhibition), SK-MEL-28; conditions: Homo sapiens; Melanoma, SK-MEL-28, 48 h
Protocol: as §1, §2, §3

HOP-62 = test: NCI COMPARE panel (SRB growth inhibition), HOP-62; conditions: Homo sapiens; Non-Small Cell Lung Cancer, HOP-62, 48 h
Protocol: as §1, §2, §3

UACC-257 = test: NCI COMPARE panel (SRB growth inhibition), UACC-257; conditions: Homo sapiens; Melanoma, UACC-257, 48 h
Protocol: as §1, §2, §3

PC-3 = test: NCI COMPARE panel (SRB growth inhibition), PC-3; conditions: Homo sapiens; Prostate Cancer, PC-3, 48 h
Protocol: as §1, §2, §3

NCI-H322M = test: NCI COMPARE panel (SRB growth inhibition), NCI-H322M; conditions: Homo sapiens, Non-Small Cell Lung Cancer, 48 h
Protocol: as §1, §2, §3

NCI-H23 = test: NCI COMPARE panel (SRB growth inhibition), NCI-H23; conditions: Homo sapiens; Non-Small Cell Lung Cancer, NCI-H23, 48 h
Protocol: as §1, §2, §3

HCT-15 = test: NCI COMPARE panel (SRB growth inhibition), HCT-15; conditions: Homo sapiens; Colon Cancer, HCT-15, 48 h
Protocol: as §1, §2, §3

SNB-75 = test: NCI COMPARE panel (SRB growth inhibition), SNB-75; conditions: Homo sapiens; CNS Cancer, SNB-75, 48 h
Protocol: as §1, §2, §3

MDA-MB-435 = test: NCI COMPARE panel (SRB growth inhibition), MDA-MB-435; conditions: Homo sapiens; Melanoma, MDA-MB-435, 48 h
Protocol: as §1, §2, §3

786-0 = test: NCI COMPARE panel (SRB growth inhibition), 786-0; conditions: Homo sapiens; Renal Cancer, 786-0, 48 h
Protocol: as §1, §2, §3

Row | Structure (SMILES) | GI50 (CCRF-CEM) [nM] | GI50 (ACHN) [nM] | GI50 (SF-268) [nM] | GI50 (UACC-62) [nM] | GI50 (NCI-H522) [nM] | GI50 (MDA-MB-468) [nM] | GI50 (RXF 393) [nM] | GI50 (SK-OV3) [nM] | GI50 (MOLT-4) [nM] | GI50 (HCC-2998) [nM] | GI50 (COLO 205) [nM] | GI50 (UO-31) [nM] | GI50 (SF-539) [nM] | GI50 (IGROV1) [nM] | GI50 (SK-MEL-28) [nM] | GI50 (HOP-62) [nM] | GI50 (UACC-257) [nM] | GI50 (PC-3) [nM] | GI50 (NCI-H322M) [nM] | GI50 (NCI-H23) [nM] | further results
1 | CS(=O)(=O)Nc1cc(-c2ccc3ncnc(Nc4cccc(Cl)c4F)c3c2)cnc1Cl [Compound 6, N-[2-chloro-5-[4-(3-chloro-2-fluoro-anilino)quinazolin-6-yl]-3-pyridyl] methanesulfonamide] | 125 to 250 | 125 to 250 | 125 to 250 | ≤ 75 | 125 to 250 | 125 to 250 | 75 to 125 | 75 to 125 | 125 to 250 | 125 to 250 | 125 to 250 | ≤ 75 | 125 to 250 | ≤ 75 | 75 to 125 | 75 to 125 | 125 to 250 | 125 to 250 | 125 to 250 | 125 to 250 | GI50 (HCT-15): 125 to 250 nM; GI50 (SNB-75): ≤ 75 nM; GI50 (MDA-MB-435): 125 to 250 nM; GI50 (786-0): 125 to 250 nM
2 | CS(=O)(=O)Nc1cc(-c2ccc3ncc(C#N)c(Nc4cccc(Cl)c4F)c3c2)cnc1Cl [Compound 10, N-[2-chloro-5-[4-(3-chloro-2-fluoro-anilino)-3-cyano-6-quinolyl]-3-pyridyl]methanesulfonamide] | ≤ 75 | > 250 | 75 to 125 | 75 to 125 | > 250 | ≤ 75 | ≤ 75 | > 250 | 75 to 125 | > 250 | 125 to 250 | 125 to 250 | 125 to 250 | 75 to 125 | 125 to 250 | 125 to 250 | > 250 | 125 to 250 | > 250 | 125 to 250 | GI50 (HCT-15): 75 to 125 nM; GI50 (SNB-75): ≤ 75 nM; GI50 (MDA-MB-435): 125 to 250 nM; GI50 (786-0): > 250 nM
